Results taken from patent US20220062240A1, “METHODS OF TREATING CANCER USING A CLK INHIBITOR” (BioSplice Therapeutics, Inc., priority 2018, published 2022).
Like-named read-outs stand apart in the source and are kept apart here.

What was measured:
[1] = system: colorectal cancer (6 cell lines); test: CellTiter-Glo Viability Assay, colorectal cancer; type: cell-based; conditions: Homo sapiens, inhibition of cancer cell proliferation
[2] = system: haematopoietic & lymphoid tumors (13 cell lines); test: CellTiter-Glo Viability Assay, haematopoietic & lymphoid tumors; type: cell-based; conditions: Homo sapiens, inhibition of cancer cell proliferation
[3] = system: liver cancer (3 cell lines); test: CellTiter-Glo Viability Assay, liver cancer; type: cell-based; conditions: Homo sapiens, inhibition of cancer cell proliferation
CLK2 = molecular target: T1, CLK2 (Homo sapiens, UniProt P49760); test: CLK2 kinase activity assay (Z-lyte, Ser/Thr 6 peptide); type: biochemical; conditions: recombinant CLK2 kinase, ATP 60 μM; read-out: EC50
T1 construct: purchased Thermo Fisher (Life Technologies), Z'-LYTE Kinase Assay Kits
Description: All reactions were performed in duplicate.

[4] = system: ovarian cancer (4 cell lines); test: CellTiter-Glo Viability Assay, ovarian cancer; type: cell-based; conditions: Homo sapiens, inhibition of cancer cell proliferation
HCC1599 = test: CellTiter-Glo Viability Assay, breast cancer; type: cell-based; conditions: Homo sapiens, 96 h; HCC1599, breast cancer, four days; read-out: EC50
MCF7 = test: CellTiter-Glo Viability Assay, breast cancer; type: cell-based; conditions: Homo sapiens, 96 h; MCF7, breast cancer, four days; read-out: EC50
BT-549 = test: CellTiter-Glo Viability Assay, breast cancer; type: cell-based; conditions: Homo sapiens, 96 h; BT-549, breast cancer, four days; read-out: EC50
CAMA1 = test: CellTiter-Glo Viability Assay, breast cancer; type: cell-based; conditions: Homo sapiens, CAMA-1, 96 h; CAMA1, breast cancer, four days; read-out: EC50
DU4475 = test: CellTiter-Glo Viability Assay, breast cancer; type: cell-based; conditions: Homo sapiens, DU-4475, 96 h; DU4475, breast cancer, four days; read-out: EC50
T47D = test: CellTiter-Glo Viability Assay, breast cancer; type: cell-based; conditions: Homo sapiens, 96 h, breast cancer, four days, read-out: EC50
MDA-MB-231-Luc = test: CellTiter-Glo Viability Assay, breast cancer; type: cell-based; conditions: Homo sapiens, 96 h; MDA-MB-231-Luc, breast cancer, four days; read-out: EC50
ZR-75-1 = test: CellTiter-Glo Viability Assay, breast cancer; type: cell-based; conditions: Homo sapiens, 96 h; ZR-75-1, breast cancer, four days; read-out: EC50
[5] = system: pancreatic cancer (8 cell lines); test: CellTiter-Glo Viability Assay, pancreatic cancer; type: cell-based; conditions: Homo sapiens, inhibition of cancer cell proliferation
[6] = system: prostate cancer (5 cell lines); test: CellTiter-Glo Viability Assay, prostate cancer; type: cell-based; conditions: Homo sapiens
[7] = system: lung cancer (4 cell lines); test: CellTiter-Glo Viability Assay, lung cancer; type: cell-based; conditions: Homo sapiens, inhibition of cancer cell proliferation
all 50 cell lines = test: CellTiter-Glo Viability Assay, average across all cell lines; type: cell-based; conditions: Homo sapiens; across all 50 cell lines; read-out: average EC50 for inhibition of cancer cell proliferation
Method in brief: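 Proliferation of a multi-tissue human cancer line panel is assessed over four days at 37° C and 5% CO2, seeding 300-3,000 cells/well. Viability is quantified by CellTiter-Glo luminescence, and EC50 values are calculated.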

[8] = HCT-116, HCT116 cell line, read-out: Colorectal cancer, EC50 (μM) HCT116
[9] = HT-29, HT29 cell line, read-out: Colorectal cancer, EC50 (μM) HT29
[10] = SW-620, SW620 cell line, read-out: Colorectal cancer, EC50 (μM) SW620
[11] = DLD-1 cell line, read-out: Colorectal cancer, EC50 (μM) DLD-1
[12] = SW48 cell line, read-out: Colorectal cancer, EC50 (μM) SW48
[13] = DND41, DND-41 cell line, read-out: Haematopoietic & Lymphoid tumors, EC50 (μM) DND-41
[14] = MV4-11, MV-4-11 cell line, read-out: Haematopoietic & Lymphoid tumors, EC50 (μM) MV-4-11
[15] = Rec1, REC-1 cell line, read-out: Haematopoietic & Lymphoid tumors, EC50 (μM) REC-1
[16] = SU-DHL-4, SUDHL4 cell line, read-out: Haematopoietic & Lymphoid tumors, EC50 (μM) SUDHL4
[17] = HL-60 cell line, read-out: Haematopoietic & Lymphoid tumors, EC50 (μM) HL-60
[18] = JM1 cell line, read-out: Haematopoietic & Lymphoid tumors, EC50 (μM) JM1
[19] = JURKAT, Clone E6-1 cell line, read-out: Haematopoietic & Lymphoid tumors, EC50 (μM) JURKAT, Clone E6-1
[20] = JeKo-1 cell line, read-out: Haematopoietic & Lymphoid tumors, EC50 (μM) JeKo-1
[21] = KASUMI-1 cell line, read-out: Haematopoietic & Lymphoid tumors, EC50 (μM) KASUMI-1
[22] = Loucy cell line, read-out: Haematopoietic & Lymphoid tumors, EC50 (μM) Loucy
[23] = MOLT-4 cell line, read-out: Haematopoietic & Lymphoid tumors, EC50 (μM) MOLT-4
[24] = TF-1 cell line, read-out: Haematopoietic & Lymphoid tumors, EC50 (μM) TF-1
[25] = TOLEDO cell line, read-out: Haematopoietic & Lymphoid tumors, EC50 (μM) TOLEDO
[26] = SNU-398, SNU398 cell line, read-out: Liver cancer, EC50 SNU398
[27] = HEPG2 cell line, read-out: Liver cancer, EC50 HEPG2
[28] = PLC/PRF/5 cell line, read-out: Liver cancer, EC50 PLC/PRF/5
[29] = PA-1, PA1 cell line, read-out: Ovarian cancer, EC50 (μM) PA1
[30] = TOV112D, TOV-112D cell line, read-out: Ovarian cancer, EC50 (μM) TOV-112D
[31] = OV-90 cell line, read-out: Ovarian cancer, EC50 (μM) OV-90
[32] = OVCAR-3 cell line, read-out: Ovarian cancer, EC50 (μM) OVCAR-3
[33] = BXPC-3, BxPC3 cell line, read-out: Pancreatic cancer, EC50 BxPC3
[34] = CAPAN-1, Capan1 cell line, read-out: Pancreatic cancer, EC50 Capan1
[35] = Capan-2, Capan2 cell line, read-out: Pancreatic cancer, EC50 Capan2
[36] = MIA PaCa-2 cell line, read-out: Pancreatic cancer, EC50 MIA PaCa-2
[37] = PANC 05.04 cell line, read-out: Pancreatic cancer, EC50 PANC 05.04
[38] = PANC-1 cell line, read-out: Pancreatic cancer, EC50 PANC-1
[39] = UPAFII cell line, read-out: Pancreatic cancer, EC50 UPAFII
[40] = DU-145, read-out: Prostate cancer EC50 Du-145
[41] = PC-3, PC3 cell line, inhibition of cancer cell proliferation, read-out: Prostate cancer EC50 PC3
[42] = 22Rv1 cell line, inhibition of cancer cell proliferation, read-out: Prostate cancer EC50 22Rv1
[43] = LNCap clone FGC cell line, inhibition of cancer cell proliferation, read-out: Prostate cancer EC50 LNCap clone FGC
[44] = VCaP (Sigma) cell line, inhibition of cancer cell proliferation, read-out: Prostate cancer EC50 VCaP (Sigma)
[45] = A-427, A427 cell line, read-out: Lung cancer, EC50 (μM) A427
[46] = HCC78, HCC-78 cell line, read-out: Lung cancer, EC50 (μM) HCC-78
[47] = NCI-H460 cell line, read-out: Lung cancer, EC50 (μM) NCI-H460
[48] = NCI-H522 cell line, read-out: Lung cancer, EC50 (μM) NCI-H522

T1 sequence (P49760 whole entry): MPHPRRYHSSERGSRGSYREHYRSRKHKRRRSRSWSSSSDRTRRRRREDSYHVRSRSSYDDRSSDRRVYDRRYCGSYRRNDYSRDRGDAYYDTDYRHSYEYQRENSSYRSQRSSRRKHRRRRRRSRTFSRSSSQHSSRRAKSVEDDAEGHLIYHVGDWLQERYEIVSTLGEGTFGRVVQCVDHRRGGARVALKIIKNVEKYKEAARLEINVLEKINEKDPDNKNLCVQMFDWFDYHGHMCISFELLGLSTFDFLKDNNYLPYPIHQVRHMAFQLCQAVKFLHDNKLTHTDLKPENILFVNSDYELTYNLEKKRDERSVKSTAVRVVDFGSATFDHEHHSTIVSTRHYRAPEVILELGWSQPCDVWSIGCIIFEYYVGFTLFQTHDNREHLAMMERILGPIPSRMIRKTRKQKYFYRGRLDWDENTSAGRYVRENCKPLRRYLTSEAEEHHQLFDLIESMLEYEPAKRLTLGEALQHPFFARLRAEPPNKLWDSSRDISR

In the case of `O=C1CCc2cccc(c2)-c2cncc(c2)NC(=O)c2n[nH]c3ccc(cc23)-c2cncc(c2)CN1` [Compound 62], the EC50 [1, 8] is reported as > 10 µM, the EC50 [1, 9] is reported as > 10 µM and the EC50 [1, 10] is reported as > 10 µM. The EC50 [1, 11] was > 10 µM, the EC50 [1, 12] was 0.393 µM and the EC50 [2, 13] was 7.8 µM. For the same molecule, the EC50 [2, 14] was 0.19 µM, the EC50 [2, 15] was > 10 µM and the EC50 [2, 16] was > 10 µM. For the same molecule, the EC50 [2, 17] was > 10 µM, the EC50 [2, 18] was > 10 µM and the EC50 [2, 19] was > 10 µM. For the same molecule, the EC50 [2, 20] was 0.452 µM, the EC50 [2, 21] was > 10 µM and the EC50 [2, 22] was > 10 µM. For the same molecule, the EC50 [2, 23] was > 10 µM, the EC50 [2, 24] was > 10 µM and the EC50 [2, 25] was > 10 µM. The EC50 [3, 26] was 473 nM, the EC50 [3, 27] was > 10000 nM and the EC50 [3, 28] was > 10000 nM. The EC50 (CLK2) was 5.3 nM, the EC50 [4, 29] was > 10 µM and the EC50 [4, 30] was > 10 µM. For the same molecule, the EC50 [4, 31] was > 10 µM, the EC50 [4, 32] was 0.554 µM and the EC50 (HCC1599) was 26 nM. The EC50 (MCF7) was > 10 µM, the EC50 (BT-549) was > 10000 nM and the EC50 (CAMA1) was > 10000 nM. For the same molecule, the EC50 (DU4475) was 387 nM, the EC50 (T47D) was > 10000 nM and the EC50 (MDA-MB-231-Luc) was > 10000 nM. For the same molecule, the EC50 (ZR-75-1) was > 10000 nM, the EC50 [5, 33] was > 10000 nM and the EC50 [5, 34] was > 10000 nM. The EC50 [5, 35] was > 10000 nM, the EC50 [5, 36] was > 10000 nM and the EC50 [5, 37] was > 10000 nM. For the same molecule, the EC50 [5, 38] was > 10000 nM, the EC50 [5, 39] was > 10000 nM and the EC50 [6, 40] was > 10000 nM. The EC50 [6, 41] was > 10000 nM, the EC50 [6, 42] was 7430 nM and the EC50 [6, 43] was > 10000 nM. The EC50 [6, 44] was > 10000 nM, the EC50 [7, 45] was > 10 µM and the EC50 [7, 46] was > 10 µM. The EC50 [7, 47] was > 10 µM, the EC50 [7, 48] was > 10 µM and the EC50 (all 50 cell lines) was 8.55 µM.

`CN1CCN(c2cc(C(=O)Nc3cc4cc(-c5cnn(C)c5)c(F)cc4cn3)ccn2)CC1` [Compound 69] was tested, and the EC50 [1, 8] was 0.156 µM, the EC50 [1, 9] was 0.318 µM and the EC50 [1, 10] was 0.125 µM. The EC50 [1, 11] was 0.265 µM, the EC50 [1, 12] was 0.131 µM and the EC50 ([1]; SW480 cell line, read-out: Colorectal cancer, EC50 (μM) SW480) was 0.19 µM. It also gave an EC50 [2, 13] of 0.225 µM, an EC50 [2, 14] of 0.101 µM and an EC50 [2, 15] of 0.11 µM. The EC50 [2, 16] was 0.498 µM, the EC50 [2, 17] was 0.522 µM and the EC50 [2, 18] was 0.122 µM. The EC50 [2, 19] was 0.5 µM, the EC50 [2, 20] was 0.458 µM and the EC50 [2, 21] was 1 µM. For the same molecule, the EC50 [2, 22] was 0.385 µM, the EC50 [2, 23] was 0.343 µM and the EC50 [2, 24] was 0.35 µM. It also gave an EC50 [2, 25] of 0.132 µM, an EC50 [3, 26] of 166 nM and an EC50 [3, 27] of 372 nM. For the same molecule, the EC50 [3, 28] was 864 nM, the EC50 (CLK2) was 1.9 nM and the EC50 [4, 29] was 0.195 µM. The EC50 [4, 30] was 0.233 µM, the EC50 [4, 31] was 0.901 µM and the EC50 [4, 32] was 0.406 µM. The EC50 (HCC1599) was 648 nM, the EC50 (MCF7) was 3.34 µM and the EC50 (BT-549) was 718 nM. It also gave an EC50 (CAMA1) of 1230 nM, an EC50 (DU4475) of 374 nM and an EC50 (T47D) of 1290 nM. The EC50 (MDA-MB-231-Luc) was 312 nM, the EC50 (ZR-75-1) was 412 nM and the EC50 [5, 33] was 918 nM. The EC50 [5, 34] was 1020 nM, the EC50 [5, 35] was 1420 nM and the EC50 [5, 36] was 433 nM. It also gave an EC50 [5, 37] of 664 nM, an EC50 [5, 38] of 1160 nM and an EC50 [5, 39] of 281 nM. For the same molecule, the EC50 [6, 40] was 748 nM, the EC50 [6, 41] was 866 nM and the EC50 [6, 42] was 316 nM. For the same molecule, the EC50 [6, 43] was 426 nM, the EC50 [6, 44] was 3400 nM and the EC50 [7, 45] was 0.756 µM. The EC50 [7, 46] was 0.666 µM, the EC50 [7, 47] was 0.922 µM and the EC50 [7, 48] was 0.43 µM. It also gave an EC50 (all 50 cell lines) of 0.636 µM.
